Data published in patent publication US7442380B2, “Treatment of diseases caused by viral infection” (Apodemus AB, priority 2003, dated 2008).

Key:
Ljungan virus = Ljungan virus in tissue culture of Vero cells with Pleconaril (CPE); type: cell-based
From the text: (§1) Ljungan virus was first tested in tissue culture of Vero cells in combination with Pleconaril. 1,6 micrograms of active substance per ml of the tissue culture medium were used. This dose was used in all experiment below where it says “with Pleconaril”.
10 000 000 tissue culture infectious doses (TCID) of Ljungan virus treated with Pleconaril give full cytopathogenic effect (CPE) in 4 days while the control culture with no Pleconaril show full CPE in 3 days.
(§2) For a control picornavirus known not to be sensitive to Pleconaril no inhibition of any amount of the virus can be detected. […] This means that Ljungan virus is semi-sensitive” or “semi-resistant” to Pleconaril.

[1] = test system: control picornavirus known not to be sensitive to Pleconaril; test: Tissue culture with Pleconaril, control picornavirus known not to be sensitive; type: cell-based; details: any amount of the virus, 1,6 micrograms Pleconaril per ml
From the text: as §1, §2

[2] = test system: picornavirus known to be sensitive to Pleconaril; test: Tissue culture with Pleconaril, picornavirus known to be sensitive; type: cell-based; details: 10 000 000 TCID, 1,6 micrograms Pleconaril per ml
From the text: as §1, §2

Bank voles with diabetes = test: Diabetic bank voles, oral Pleconaril, glucose tolerance test; type: in vivo; details: 100 mg/kg per day for seven days orally in drinking water; GTT 60 min, day before treatment vs 15 days later; none of six control animals
Procedure: Bank voles with diabetes were randomised into 2 groups one treated with Pleconaril and one not receiving any treatment. Treated animals were given 100 mg Pleconaril per kg body weight per day seven days. The drug was administered orally in the drinking water. All animals were subjected to a glucose tolerance test the day before the treatment and again 15 days later. Glucose tolerance test was performed by administrating 2 grams of glucose per kg BW intraperitoneally. The blood glucose levels were measured after 60 min.

[3] = test system: arctic fox with severe encephalitis (Ljungan virus); test: Encephalitis in arctic fox treated with Pleconaril; type: in vivo; details: one arctic fox, 50 mg/kg twice daily for 7 days
From the text: The arctic fox in Sweden is a species close to being extinct. The reason for this is unknown. Nordens Ark has a breeding program for arctic foxes with the aim to save the species. However, several animals in captivity have developed encephalitis and died. Nordens Ark has lost almost all their animals. The encephalitis is a slow progressing disease often starting with stereotypic behaviour followed by visual problem, loss of smell and loss of muscle coordination. The condition is slowly progressing over several months leading to the deaths of the animal. No spontaneous recovery has been seen in any of the arctic foxes observed.
Ljungan virus was isolated from the brain of one arctic fox suffering from encephalitis. Ljungan virus RNA was also detected by PCR in the brain and the heart of the same individual. Ljungan virus could also be detected in the brain and the heart by immunohistochemistry.
One arctic fox with severe encephalitis was treated with 50 mg/kg of Pleconaril twice daily for 7 days.

Ljungan virus (LV145 SL) = test: Antiviral therapy of diabetes in male offspring of Ljungan virus infected laboratory mice; type: in vivo, CD1 mice; details: for frequency of animals with diabetes, as measured by GTT: vs infected untreated mice
Procedure: Glucose tolerance test was performed to determine the diagnosis of diabetes. In this test 2 g glucose per kg body weight was administrated intraperitoneally (as 100 mg glucose/ml solution). Blood glucose was measured (Medisence Precision PCx Abbott Laboratories) just before the glucose injection and at 60 and 120 minutes post administration. Diabetes was defined as a blood glucose level above 200 mg/dL in a glucose tolerance test at 120 min.
Abdominal fat in male mice was measured by dissecting out the bilateral scrotal fat cushion. The total weight of both fat cushions was used.
The serum insulin level was measured using a rat insulin high range ELISA kit (Mercodia AB, Uppsala, Sweden) according to the instructions of the manufacturer. Islets prepared from the pancreas were assayed for insulin release and glucose oxidation assay described elsewhere (Blixt, M., Niklasson, B. & Sandler, S. Characterization of β-cell function of pancreatic islets isolated from bank voles developing glucose intolerance/diabetes: an animal model showing features of both type 1 and type 2 diabetes mellitus. Manuscript submitted).
Pregnant outbred CD1 mice (CD-1 (ICR) Br Charles River laboratories, Germany) were infected intraperitoneally with 1000 ID50 units of LV145 SL two days after conception. Control animals were given an injection with the same volume with normal saline at the same time. All female mice were kept in individual cages and followed for the development of gestational diabetes, pregnancy outcome and development of diabetes in the offspring. In half of the infected pregnant mice, mild stress was induced by adding glucose (100 g/liter) to drinking water, performing weekly weights and glucose tolerance testing during the last week of pregnancy. The uninfected control group of pregnant mice was also subjected to stress. Antiviral therapy using LV-specific murine antisera or the oral antiviral compound Pleconaril (200 mg per kg body weight) administrated once a day for 4 consecutive days or a combination of antiserum and Pleconaril was initiated at 5 weeks of age (11-13). At 15 weeks animals were tested by a glucose tolerance test (GTT). Also, serum insulin level and abdominal fat were measured and the histopathology of the pancreas was examined.
Antiviral therapy using LV-specific murine antisera (group IV) or the oral antiviral compound Pleconaril (200 mg per kg body weight) administrated once a day for 4 consecutive days (group III) or a combination of antiserum and Pleconaril (group V) was initiated at 5 weeks of age.
Mice were treated with a combination of Pleconaril and antisera and interferon α. Interferon a was given as 2×10^7 IU/kg/day during three consecutive days during the same week Pleconaril and specific immunoglobulin was administrated. […] In addition, the combination therapy (Pleconaril, antisera, and interferon) normalize the amount of abdominal fat and the level of serum insulin, reducing them to normal levels.

Cc1cc(CCCOc2c(C)cc(-c3noc(C(F)(F)F)n3)cc2C)on1 [Pleconaril, 3-[3,5-dimethyl-4-[[3-(3-methyl-5-isoxazolyl)propyl]oxy]phenyl]-5-(trifluoromethyl)-1,2,4-oxadiazole]
time to full cytopathogenic effect (CPE) (Ljungan virus; 10 000 000 TCID of Ljungan virus, Vero cells, 1,6 micrograms Pleconaril per ml, control culture without Pleconaril full CPE in 3 days): 4 days
inhibition of Ljungan virus (Ljungan virus; 100 TCID of Ljungan virus, Vero cells, 1,6 micrograms Pleconaril per ml): fully inhibited
sensitivity of Ljungan virus to Pleconaril (conclusion) (Ljungan virus; Vero cells, 1,6 micrograms per ml): semi-sensitive
inhibition of control picornavirus [1]: no inhibition
inhibition of sensitive picornavirus (CPE) [2]: inhibited (no CPE)
animals improved with blood glucose levels decreasing more than 200 mg per dl (Bank voles with diabetes): 2 out of six
clinical condition after the treatment [3]: improved
course after several months [3]: signs and symptoms of encephalitis came back
No. with blood glucose > 200 md/dL at 120 min (Ljungan virus (LV145 SL); Table 2, GTT at 15 weeks, therapy started at 5 weeks, number of mice, infected no treatment 8 of 11): 1
No. with blood glucose > 200 md/dL at 120 min (percent) (Ljungan virus (LV145 SL); Table 2, GTT at 15 weeks, infected no treatment 73%): 9%
Blood glucose at 60 min (Ljungan virus (LV145 SL); Table 2, GTT at 15 weeks, infected no treatment 242): 211
Serum insulin (Ljungan virus (LV145 SL); Table 2, at 15 weeks, infected no treatment 5.04): 4.15 µg/L
Abdominal fat in gram (Ljungan virus (LV145 SL); Table 2, male mice at 15 weeks, infected no treatment 2.9): 2.1 gram
No. Hyperglycemic (Ljungan virus (LV145 SL); Table 7, infected mice, number of mice, no treatment 8 of 11): 1
No. Hyperglycemic (percent) (Ljungan virus (LV145 SL); Table 7, infected mice, no treatment 73%): 9%
Abdominal fat (Ljungan virus (LV145 SL); Table 7, infected mice, spread in brackets, no treatment 2.90 (0.84)): 2.20 (1.0) g
Serum insulin (Ljungan virus (LV145 SL); Table 7, infected mice, spread in brackets, no treatment 5.04 (2.30)): 4.15 (5.03) μg/L
Blood glucose @ 60 minutes (Ljungan virus (LV145 SL); Table 7, infected mice, spread in brackets, no treatment 242 (75)): 211 (79) mg/dL
frequency of animals with diabetes, as measured by GTT (Ljungan virus (LV145 SL)): reduced the frequency of animals with diabetes
frequency of animals with diabetes, as measured by GTT (Ljungan virus (LV145 SL); listed as Pleconaril alone): reduced the frequency of diabetes
